Literature values, collected in patent US20170189402A1, “SOLID DOSAGE FORMS” (AbbVie Inc., priority 2012, published 2017).

Experiments:
[1] = administered orally

| bioavailability [1] | solubility | SMILES |
| --- | --- | --- |
| over 80% |  | Nc1ccn([C@@H]2CS[C@H](CO)O2)c(=O)n1 [Lamivudine] |
|  | poorly soluble | Cc1cccc(C)c1OCC(=O)N[C@@H](Cc1ccccc1)[C@@H](O)C[C@H](Cc1ccccc1)NC(=O)[C@H](C(C)C)N1CCCNC1=O [lopinavir] |
